These are literature values, as cited in paper PMC2984425, “Safety and pharmacokinetics of novel selective vascular endothelial growth factor receptor-2 inhibitor YN968D1 in patients with advanced malignancies” (BMC Cancer, 2010).

Data set [1] relates to advanced refractory solid tumors. To be noted: pooled analysis of 137 patients from 4 phase I trials; cited from earlier work.
The subject of a further data set is colorectal cancer. Set-up: method as in PMID 17947727. As to conditions: 84 patients with colorectal cancer, monotherapy; cited from earlier work.
The subject of the next data set is renal cell carcinoma. Set-up: method as in PMID 17215529. To be noted: first-line treatment for renal cell carcinoma; cited from earlier work.
Data set [2] has as its system metastatic gastric cancer. Set-up: method as in ref 16 = [16]; Moehler M Hartmann JT Lordick F Al-Batran S Reimer P Trarbach T Ebert M Daum S Weihrauch M Galle PR AIO Upper GI Group Sunitinib in patients with chemo-refractory metastatic gastric cancer: Preliminar. As to conditions: of 52 patients, chemo-refractory metastatic gastric cancer; cited from earlier work.

As for `CNC(=O)c1cc(Oc2ccc(NC(=O)Nc3ccc(Cl)c(C(F)(F)F)c3)cc2)ccn1` [sorafenib], in data set [1], the “PR, % of patients” value is 1.4%; the “evaluable patients who achieved PR” value is on record as 2; the “patients who had SD” value was 38; the “patients with signs of disease progression by radiological imaging” value is listed as 70.8%.

On to `CCN(CC)CCNC(=O)c1c(C)[nH]c(/C=C2\C(=O)Nc3ccc(F)cc32)c1C` [sunitinib], for which, in the data set on colorectal cancer, the “patients who achieved PR” value is 1 and the “patients with stable disease” value was 13. For the same compound, in the data set on renal cell carcinoma, the “progression-free survival (PFS)” value is recorded as 11 months and the response rate is recorded as 31%. Moreover, the “patients who showed tumor control” value in data set [2] is 5.
